Experimental data taken from patent publication US11178873B2, “Cyclic N-carboxamide compounds useful as herbicides” (FMC CORPORATION, priority 2015, dated 2021).

How the values were obtained:
Type in all cases: in vivo
[1] = tested on: barnyardgrass (Echinochloa crus-galli); assay: Test A preemergence, barnyardgrass; settings: 0 to 100 scale, 0 no effect, 100 complete control
Method in brief: (§1)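 Seeds sown in loam soil–sand blend received a directed preemergence soil spray of test chemical in non-phytotoxic solvent with surfactant; postemergence sprays went onto plants 2 to 10 cm tall at one- to two-leaf stage. After about 10 d in greenhouse, injury was rated visually against untreated controls, 0 (no effect) to 100 (complete control).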

[2] = tested on: crabgrass, large (large crabgrass, Digitaria sanguinalis); assay: Test A preemergence, crabgrass, large; settings: 0 to 100 scale, 0 no effect, 100 complete control
Description: (§2) Seeds of plant species selected from barnyardgrass (Echinochloa crus-galli), crabgrass, large (large crabgrass, Digitaria sanguinalis), kochia (Kochia scoparia), ragweed (common ragweed, Ambrosia elatior), morningglory (Ipomoea spp.), velvetleaf (Abutilon theophrasti), ryegrass, Italian (Italian ryegrass, Lolium multiflorum), foxtail, giant (giant foxtail, Setaria faberii), wheat (Triticum aestivum), corn (Zea mays), and pigweed (Amaranthus retroflexus), were planted into a blend of loam soil and sand and treated preemergence with a directed soil spray using test chemicals formulated in a non-phytotoxic solvent mixture which included a surfactant. At the same time, plants selected from these crop and weed species and also blackgrass (Alopecurus myosuroides), and galium (catchweed bedstraw, Galium aparine), were planted in pots containing the same blend of loam soil and sand and treated with postemergence applications of test chemicals formulated in the same manner. Plants ranged in height from 2 to 10 cm and were in the one- to two-leaf stage for the postemergence treatment. Treated plants and untreated controls were maintained in a greenhouse for approximately 10 d, after which time all treated plants were compared to untreated controls and visually evaluated for injury. Plant response ratings, summarized in Table A, are based on a 0 to 100 scale where 0 is no effect and 100 is complete control. A dash (-) response means no test result.

[3] = tested on: morningglory (Ipomoea spp.); assay: Test A preemergence, morningglory; settings: 0 to 100 scale, 0 no effect, 100 complete control
Description: as §2

[4] = tested on: velvetleaf (Abutilon theophrasti); assay: Test A preemergence, velvetleaf; settings: 0 to 100 scale, 0 no effect, 100 complete control
Description: as §2

[5] = tested on: foxtail, giant (giant foxtail, Setaria faberii); assay: Test A preemergence, foxtail, giant; settings: 0 to 100 scale, 0 no effect, 100 complete control
Method in brief: as §1

[6] = tested on: wheat (Triticum aestivum); assay: Test A preemergence, wheat; settings: 0 to 100 scale, 0 no effect, 100 complete control
Description: as §2

[7] = tested on: corn (Zea mays); assay: Test A preemergence, corn; settings: 0 to 100 scale, 0 no effect, 100 complete control
Description: as §2

[8] = tested on: pigweed (Amaranthus retroflexus); assay: Test A preemergence, pigweed; settings: 0 to 100 scale, 0 no effect, 100 complete control
Method in brief: as §1

[9] = tested on: barnyardgrass (Echinochloa crus-galli); assay: Test A postemergence, barnyardgrass; settings: 0 to 100 scale, 0 no effect, 100 complete control
Method in brief: as §1

[10] = tested on: crabgrass, large (large crabgrass, Digitaria sanguinalis); assay: Test A postemergence, crabgrass, large; settings: 0 to 100 scale, 0 no effect, 100 complete control
Description: as §2

[11] = tested on: morningglory (Ipomoea spp.); assay: Test A postemergence, morningglory; settings: 0 to 100 scale, 0 no effect, 100 complete control
Description: as §2

[12] = tested on: velvetleaf (Abutilon theophrasti); assay: Test A postemergence, velvetleaf; settings: 0 to 100 scale, 0 no effect, 100 complete control
Description: as §2

[13] = tested on: foxtail, giant (giant foxtail, Setaria faberii); assay: Test A postemergence, foxtail, giant; settings: 0 to 100 scale, 0 no effect, 100 complete control
Method in brief: as §1

[14] = tested on: wheat (Triticum aestivum); assay: Test A postemergence, wheat; settings: 0 to 100 scale, 0 no effect, 100 complete control
Method in brief: as §1

[15] = tested on: corn (Zea mays); assay: Test A postemergence, corn; settings: 0 to 100 scale, 0 no effect, 100 complete control
Method in brief: as §1

[16] = tested on: pigweed (Amaranthus retroflexus); assay: Test A postemergence, pigweed; settings: 0 to 100 scale, 0 no effect, 100 complete control
Method in brief: as §1

[17] = tested on: barnyardgrass (Echinochloa crus-galli); assay: Test B flooded paddy test, barnyardgrass; settings: Flood, 250 g ai/ha; scale 0 to 100 (0 no effect, 100 complete control); 13 to 15 d
Method in brief: (§3)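 Plants at the 2-leaf stage were flooded to 3 cm above soil, and test compounds were applied directly into the paddy water, which was held at that depth throughout. After 13 to 15 d in a greenhouse, injury was rated visually against untreated controls on a 0–100 scale (0 no effect, 100 complete control).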

[18] = tested on: ducksalad (Heteranthera limosa); assay: Test B flooded paddy test, ducksalad; settings: Flood, 250 g ai/ha; scale 0 to 100 (0 no effect, 100 complete control); 13 to 15 d
Method in brief: as §3

[19] = tested on: rice (Oryza sativa); assay: Test B flooded paddy test, rice; settings: Flood, 250 g ai/ha; scale 0 to 100 (0 no effect, 100 complete control); 13 to 15 d
Method in brief: as §3

[20] = tested on: sedge, umbrella (small-flower umbrella sedge, Cyperus difformis); assay: Test B flooded paddy test, sedge, umbrella; settings: Flood, 250 g ai/ha; scale 0 to 100 (0 no effect, 100 complete control); 13 to 15 d
Method in brief: as §3

**Q.** Which results are given for `O=C(Nc1ccccc1F)N1C(=O)OCC1c1ccc(Cl)cc1` (stereo not drawn) [Compound 4]?
**A.** Plant response rating, Barnyardgrass ([1]; 125 g ai/ha): 0; Plant response rating, Barnyardgrass ([1]; 500 g ai/ha): 0; Plant response rating, Crabgrass, Large ([2]; 125 g ai/ha): 0; Plant response rating, Crabgrass, Large ([2]; 500 g ai/ha): 20; Plant response rating, Morningglory ([3]; 125 g ai/ha): 0; Plant response rating, Morningglory ([3]; 500 g ai/ha): 0; Plant response rating, Velvetleaf ([4]; 125 g ai/ha): 0; Plant response rating, Velvetleaf ([4]; 500 g ai/ha): 0; Plant response rating, Foxtail, Giant ([5]; 125 g ai/ha): 0; Plant response rating, Foxtail, Giant ([5]; 500 g ai/ha): 0; Plant response rating, Wheat ([6]; 125 g ai/ha): 0; Plant response rating, Wheat ([6]; 500 g ai/ha): 0; Plant response rating, Corn ([7]; 125 g ai/ha): 0; Plant response rating, Corn ([7]; 500 g ai/ha): 0; Plant response rating, Pigweed ([8]; 125 g ai/ha): 0; Plant response rating, Pigweed ([8]; 500 g ai/ha): 0; Plant response rating, Barnyardgrass ([9]; 125 g ai/ha): 0; Plant response rating, Barnyardgrass ([9]; 500 g ai/ha): 0; Plant response rating, Crabgrass, Large ([10]; 125 g ai/ha): 0; Plant response rating, Crabgrass, Large ([10]; 500 g ai/ha): 0; Plant response rating, Morningglory ([11]; 125 g ai/ha): 0; Plant response rating, Morningglory ([11]; 500 g ai/ha): 0; Plant response rating, Velvetleaf ([12]; 125 g ai/ha): 0; Plant response rating, Velvetleaf ([12]; 500 g ai/ha): 0; Plant response rating, Foxtail, Giant ([13]; 125 g ai/ha): 0; Plant response rating, Foxtail, Giant ([13]; 500 g ai/ha): 0; Plant response rating, Wheat ([14]; 125 g ai/ha): 0; Plant response rating, Wheat ([14]; 500 g ai/ha): 0; Plant response rating, Corn ([15]; 125 g ai/ha): 0; Plant response rating, Corn ([15]; 500 g ai/ha): 0; Plant response rating, Pigweed ([16]; 125 g ai/ha): 0; Plant response rating, Pigweed ([16]; 500 g ai/ha): 0; Plant response rating, Barnyardgrass [17]: 0; Plant response rating, Ducksalad [18]: 0; Plant response rating, Rice [19]: 0; Plant response rating, Sedge, Umbrella [20]: 0

**Q.** `O=C(Nc1ccccc1Cl)N1C(=O)OCC1c1ccc(F)c(F)c1` (stereo not drawn) [Compound 2] was tested. Which “Plant response rating, Barnyardgrass” value ([1]; 125 g ai/ha) did it give?
**A.** 0

**Q.** What about the “Plant response rating, Barnyardgrass” value ([1]; 500 g ai/ha) of the same molecule?
**A.** 0

**Q.** And the “Plant response rating, Crabgrass, Large” value ([2]; 125 g ai/ha)?
**A.** 40

**Q.** What about the “Plant response rating, Crabgrass, Large” value ([2]; 500 g ai/ha) of the same molecule?
**A.** 80

**Q.** What about the “Plant response rating, Morningglory” value ([3]; 125 g ai/ha) of the same molecule?
**A.** 0

**Q.** And the “Plant response rating, Morningglory” value ([3]; 500 g ai/ha)?
**A.** 0

**Q.** What about the “Plant response rating, Velvetleaf” value ([4]; 125 g ai/ha) of the same molecule?
**A.** 0

**Q.** What about the “Plant response rating, Velvetleaf” value ([4]; 500 g ai/ha) of the same molecule?
**A.** 0

**Q.** What about the “Plant response rating, Foxtail, Giant” value ([5]; 125 g ai/ha) of the same molecule?
**A.** 0

**Q.** What about the “Plant response rating, Foxtail, Giant” value ([5]; 500 g ai/ha) of the same molecule?
**A.** 30

**Q.** And the “Plant response rating, Wheat” value ([6]; 125 g ai/ha)?
**A.** 0

**Q.** What about the “Plant response rating, Wheat” value ([6]; 500 g ai/ha) of the same molecule?
**A.** 0

**Q.** What about the “Plant response rating, Corn” value ([7]; 125 g ai/ha) of the same molecule?
**A.** 0

**Q.** What about the “Plant response rating, Corn” value ([7]; 500 g ai/ha) of the same molecule?
**A.** 0

**Q.** And the “Plant response rating, Pigweed” value ([8]; 125 g ai/ha)?
**A.** 0

**Q.** And the “Plant response rating, Pigweed” value ([8]; 500 g ai/ha)?
**A.** 0

**Q.** What about the “Plant response rating, Barnyardgrass” value ([9]; 125 g ai/ha) of the same molecule?
**A.** 0

**Q.** What about the “Plant response rating, Barnyardgrass” value ([9]; 500 g ai/ha) of the same molecule?
**A.** 0

**Q.** What about the “Plant response rating, Crabgrass, Large” value ([10]; 125 g ai/ha) of the same molecule?
**A.** 0

**Q.** And the “Plant response rating, Crabgrass, Large” value ([10]; 500 g ai/ha)?
**A.** 0

**Q.** What about the “Plant response rating, Morningglory” value ([11]; 125 g ai/ha) of the same molecule?
**A.** 0

**Q.** And the “Plant response rating, Morningglory” value ([11]; 500 g ai/ha)?
**A.** 0

**Q.** What about the “Plant response rating, Velvetleaf” value ([12]; 125 g ai/ha) of the same molecule?
**A.** 0

**Q.** What about the “Plant response rating, Velvetleaf” value ([12]; 500 g ai/ha) of the same molecule?
**A.** 0

**Q.** What about the “Plant response rating, Foxtail, Giant” value ([13]; 125 g ai/ha) of the same molecule?
**A.** 0

**Q.** What about the “Plant response rating, Foxtail, Giant” value ([13]; 500 g ai/ha) of the same molecule?
**A.** 0

**Q.** What about the “Plant response rating, Wheat” value ([14]; 125 g ai/ha) of the same molecule?
**A.** 0

**Q.** What about the “Plant response rating, Wheat” value ([14]; 500 g ai/ha) of the same molecule?
**A.** 0

**Q.** And the “Plant response rating, Corn” value ([15]; 125 g ai/ha)?
**A.** 0

**Q.** And the “Plant response rating, Corn” value ([15]; 500 g ai/ha)?
**A.** 0

**Q.** What about the “Plant response rating, Pigweed” value ([16]; 125 g ai/ha) of the same molecule?
**A.** 0

**Q.** What about the “Plant response rating, Pigweed” value ([16]; 500 g ai/ha) of the same molecule?
**A.** 0

**Q.** What about the “Plant response rating, Barnyardgrass” value [17] of the same molecule?
**A.** 0

**Q.** And the “Plant response rating, Ducksalad” value [18]?
**A.** 0

**Q.** And the “Plant response rating, Rice” value [19]?
**A.** 0

**Q.** What about the “Plant response rating, Sedge, Umbrella” value [20] of the same molecule?
**A.** 0
